According to patent publication US20240207302A1, “ANTIVIRAL COMPOUNDS, METHODS FOR THE MANUFACTURING OF COMPOUNDS, ANTIVIRAL PHARMACEUTICAL COMPOSITION, USE OF THE COMPOUNDS AND METHOD FOR THE ORAL TREATMENT OF CORONAVIRUS INFECTION AND RELATED DISEASES THEREOF” (priority 2021, published 2024):

How the values were obtained:
[1] = Toxicokinetics in the 28-day study; format: in vivo, mice; details: for AUC / Cmax / Tmax / half-life: CD1, mouse, in vivo, po
[2] = Pharmacokinetics of MB-905 in three pre-formulations in mice; format: in vivo
Text: FIG. 21. Pharmacokinetics of MB-905 in three pre-formulations in mice.
Thus, the pre-formulation was used for most subsequent in vivo studies.

[3] = Cytotoxicity assay (XTT) in Calu-3 cells; format: cell-based, human; details: human, Calu-3 cells, Table 6
Protocol: In parallel, cytotoxicity assays were performed.

[4] = female, 250 mg/kg, female mice, 250 mg/kg, Day 0
[5] = female, 250 mg/kg, female mice, 250 mg/kg, Day 28
[6] = male, 10 mg/kg, male mice, 10 mg/kg, Day 0
[7] = male, 10 mg/kg, male mice, 10 mg/kg, Day 28
[8] = male, 80 mg/kg, male mice, 80 mg/kg, Day 0
[9] = male, 80 mg/kg, male mice, 80 mg/kg, Day 28
[10] = male, 250 mg/kg, male mice, 250 mg/kg, Day 0
[11] = male, 250 mg/kg, male mice, 250 mg/kg, Day 28
[12] = mouse, plasma, po, 3 mg/kg, 5% Carboxymethylcellulose, 3 mg/kg (v.o.)
[13] = mouse, plasma, po, 3 mg/kg, 5% Tween80 + 95% PEG400, 3 mg/kg (p.o.)
[14] = mouse, plasma, po, 3 mg/kg, 5% ethanol, 30% Propylene Glycol, 45% PEG 400, 20% water, 3 mg/kg (v.o.)
[15] = mouse, plasma, po, 30 mg/kg, 5% Carboxymethylcellulose, 30 mg/kg (p.o.)
[16] = mouse, plasma, po, 30 mg/kg, 5% Tween80 + 95% PEG400, 30 mg/kg (p.o.)
[17] = mouse, plasma, po, 30 mg/kg, 5% ethanol, 30% Propylene Glycol, 45% PEG 400, 20% water, 30 mg/kg (p.o.)
[18] = mouse, plasma, po, 550 mg/kg, 5% ethanol, 30% Propylene Glycol, 45% PEG 400, 20% water, 550 mg/kg (p.o.)

c1coc(CNc2ncnc3[nH]cnc23)c1 [MB-905, kinetin]
AUC [1, 4]: 4910 ng·h/mL
Cmax [1, 4]: 898 ng/mL
Tmax [1, 4]: 15 min
half-life [1, 4]: 185 min
AUC [1, 5]: 2080 ng·h/mL
Cmax [1, 5]: 716 ng/mL
Tmax [1, 5]: 15 min
half-life [1, 5]: 155 min
AUC [1, 6]: 91 ng·h/mL
Cmax [1, 6]: 99 ng/mL
Tmax [1, 6]: 15 min
AUC [1, 7]: 121 ng·h/mL
Cmax [1, 7]: 144 ng/mL
Tmax [1, 7]: 15 min
AUC [1, 8]: 1020 ng·h/mL
Cmax [1, 8]: 598 ng/mL
Tmax [1, 8]: 15 min
half-life [1, 8]: 72.6 min
AUC [1, 9]: 1170 ng·h/mL
Cmax [1, 9]: 750 ng/mL
Tmax [1, 9]: 15 min
AUC [1, 10]: 4480 ng·h/mL
Cmax [1, 10]: 793 ng/mL
Tmax [1, 10]: 60 min
AUC [1, 11]: 1130 ng·h/mL
Cmax [1, 11]: 588 ng/mL
Tmax [1, 11]: 15 min
half-life [1, 11]: 91.8 min
accumulation (AUCall and Cmax day 0 vs day 28) ([1]; mice, males and females): no there was an accumulation
Cmax ([2]; 5% ethanol, 30% Propylene Glycol, 45% PEG 400, 20% water, 30 mg/kg (p.o.)): 569.97 ng/mL
Cmax ([2]; 5% ethanol, 30% Propylene Glycol, 45% PEG 400, 20% water, 550 mg/kg (p.o.)): 1053.37 ng/mL
Tmax ([2]; CD1, mouse, plasma, po, 3 mg/kg, 5% Carboxymethylcellulose, 3 mg/kg (v.o.)): 15 min
Cmax ([2]; CD1, mouse, plasma, po, 3 mg/kg, 5% Carboxymethylcellulose, 3 mg/kg (v.o.), read-out: Cmax): 70.2 ng/mL
Tmax ([2]; CD1, mouse, plasma, po, 3 mg/kg, 5% Tween80 + 95% PEG400, 3 mg/kg (p.o.)): 15 min
Cmax ([2]; CD1, mouse, plasma, po, 3 mg/kg, 5% Tween80 + 95% PEG400, 3 mg/kg (p.o.), read-out: Cmax): 60.8 ng/mL
Tmax ([2]; CD1, mouse, plasma, po, 3 mg/kg, 5% ethanol, 30% Propylene Glycol, 45% PEG 400, 20% water, 3 mg/kg (v.o.)): 15 min
Cmax ([2]; CD1, mouse, plasma, po, 3 mg/kg, 5% ethanol, 30% Propylene Glycol, 45% PEG 400, 20% water, 3 mg/kg (v.o.), read-out: Cmax): 64 ng/mL
Tmax ([2]; CD1, mouse, plasma, po, 30 mg/kg, 5% Carboxymethylcellulose, 30 mg/kg (p.o.)): 15 min
Cmax ([2]; CD1, mouse, plasma, po, 30 mg/kg, 5% Carboxymethylcellulose, 30 mg/kg (p.o.), read-out: Cmax): 504 ng/mL
Tmax ([2]; CD1, mouse, plasma, po, 30 mg/kg, 5% Tween80 + 95% PEG400, 30 mg/kg (p.o.)): 15 min
Cmax ([2]; CD1, mouse, plasma, po, 30 mg/kg, 5% Tween80 + 95% PEG400, 30 mg/kg (p.o.), read-out: Cmax): 507 ng/mL
Tmax ([2]; CD1, mouse, plasma, po, 300 mg/kg, 5% Carboxymethylcellulose, 300 mg/kg (p.o.)): 480 min
Cmax ([2]; CD1, mouse, plasma, po, 300 mg/kg, 5% Carboxymethylcellulose, 300 mg/kg (p.o.), read-out: Cmax): 1020 ng/mL
Tmax ([2]; CD1, mouse, plasma, po, 300 mg/kg, 5% Tween80 + 95% PEG400, 300 mg/kg (p.o.)): 15 min
Cmax ([2]; CD1, mouse, plasma, po, 300 mg/kg, 5% Tween80 + 95% PEG400, 300 mg/kg (p.o.), read-out: Cmax): 1030 ng/mL
AUC [2, 12]: 107 ng·h/mL
half-life [2, 12]: 131 min
AUC [2, 13]: 153 ng·h/mL
half-life [2, 13]: 158 min
AUC [2, 14]: 98.4 ng·h/mL
half-life [2, 14]: 115 min
AUC [2, 15]: 525 ng·h/mL
half-life [2, 15]: 100 min
AUC [2, 16]: 1110 ng·h/mL
half-life [2, 16]: 136 min
AUC [2, 17]: 763 ng·h/mL
Tmax [2, 17]: 15 min
half-life [2, 17]: 217 min
AUC ([2]; mouse, plasma, po, 300 mg/kg, 5% Carboxymethylcellulose, 300 mg/kg (p.o.)): 14800 ng·h/mL
AUC ([2]; mouse, plasma, po, 300 mg/kg, 5% Tween80 + 95% PEG400, 300 mg/kg (p.o.)): 11500 ng·h/mL
AUC [2, 18]: 11600 ng·h/mL
Tmax [2, 18]: 60 min
half-life [2, 18]: 518 min
CC50 at 3 days ([3]; Calu-3, daily treatment): 538 µM
CC50 at 3 days ([3]; Calu-3, single treatment): 620 µM
